Measurements: PubChem BioAssay (NCI)
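Exposure lasted 48 hours, with cells grown in 96-well plates and compounds tested at five concentrations. Abbreviation: GI50, concentration required for 50% inhibition of growth. TGI: concentration producing complete growth inhibition.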

Assays:
Assay in all cases: NCI-60 cell line screen, 48 h
[1] = test system: UACC-257 melanoma
[2] = test system: M14 melanoma
[3] = test system: LOX IMVI melanoma
[4] = test system: SNB-19 CNS
[5] = test system: UO-31 renal
[6] = test system: OVCAR-4 ovarian
[7] = test system: HCC-2998 colon
[8] = test system: SK-MEL-5 melanoma
[9] = test system: OVCAR-3 ovarian
[10] = test system: RXF 393 renal
[11] = test system: SK-MEL-2 melanoma
[12] = test system: RPMI-8226 leukemia
[13] = test system: KM12 colon
[14] = test system: CAKI-1 renal
[15] = test system: SW-620 colon
[16] = test system: HL-60(TB) leukemia
[17] = test system: NCI-H226 lung
[18] = test system: MOLT-4 leukemia
[19] = test system: NCI-H460 lung
[20] = test system: DMS 114 small cell lung
[21] = test system: TK-10 renal
[22] = test system: OVCAR-8 ovarian
[23] = test system: A498 renal
[24] = test system: CCRF-CEM leukemia
[25] = test system: 786-0 renal
[26] = test system: SN12C renal
[27] = test system: LXFL 529 NSCLC
[28] = test system: U251 CNS
[29] = test system: DMS 273 small cell lung
[30] = test system: SF-268 CNS
[31] = test system: SNB-75 CNS
[32] = test system: SK-OV-3 ovarian
[33] = test system: K-562 leukemia
[34] = test system: IGROV1 ovarian
[35] = test system: OVCAR-5 ovarian
[36] = test system: M19-MEL melanoma
[37] = test system: SNB-78 CNS
[38] = test system: HCT-15 colon
[39] = test system: SF-295 CNS
[40] = test system: A549 NSCLC
[41] = test system: HCT-116 colon
[42] = test system: DLD-1 colon
[43] = test system: HT29 colon
[44] = test system: ACHN renal
[45] = test system: HOP-62 NSCLC
[46] = test system: XF 498 CNS

Compound: O=C(OC/C=C1C=C(OC(=O)c2ccccc2)/C(=N/N(C(=O)c2ccccc2)c2ccccc2)O\1)c1ccccc1
- TGI [1]: 19.7 µM
- TGI [2]: 18.7 µM
- TGI [3]: 14.1 µM
- TGI [4]: 23 µM
- TGI [5]: 0.517 µM
- TGI [6]: 22.1 µM
- TGI [7]: 12.4 µM
- GI50 [8]: 19 µM
- TGI [8]: 35.5 µM
- GI50 [9]: 8.35 µM
- TGI [9]: 21.5 µM
- TGI [10]: 5.58 µM
- TGI [11]: 27 µM
- TGI [12]: 7.24 µM
- TGI [13]: 22.8 µM
- TGI [14]: 13.7 µM
- TGI [15]: 22.5 µM
- GI50 [16]: < 0.01 µM
- TGI [16]: 2.29 µM
- TGI [17]: 54.1 µM
- TGI [18]: 14 µM
- TGI [19]: 20 µM
- TGI [20]: 28.3 µM
- TGI [21]: 21.8 µM
- TGI [22]: 23.6 µM
- TGI [23]: 25.6 µM
- TGI [24]: 2.1 µM
- TGI [25]: 2.95 µM
- TGI [26]: 22.7 µM
- TGI [27]: 4.4 µM
- TGI [28]: 19.3 µM
- TGI [29]: 24.1 µM
- TGI [30]: 6.85 µM
- GI50 [31]: 18.5 µM
- TGI [31]: 37.9 µM
- TGI [32]: 23.6 µM
- TGI [33]: 11.8 µM
- TGI [34]: 13.3 µM
- GI50 [35]: 15.9 µM
- TGI [35]: 29.5 µM
- TGI [36]: 18.8 µM
- TGI [37]: 67.1 µM
- TGI [38]: 19.7 µM
- TGI [39]: 21.4 µM
- TGI [40]: 22.6 µM
- TGI [41]: 18.3 µM
- TGI [42]: 10.6 µM
- GI50 [43]: 19.8 µM
- TGI [43]: 41.5 µM
- TGI [44]: 22.5 µM
- GI50 [45]: 18.8 µM
- TGI [45]: 37 µM
- TGI [46]: 33.7 µM
